In this assay the target is Chitinase (Trichoderma). In words: Compound was evaluated for inhibitory activity against Trichoderma Chitinase.

The structures appear in SMILES notation.

In the case of `CC(=O)NC(/C=N/NC(=O)CCCCCNC(=O)CCCCC1SC[C@@H]2NC(=O)N[C@H]12)C(OC(/C=N/NC(=O)CCCCCNC(=O)CCCCC1SC[C@@H]2NC(=O)N[C@H]12)CO)OC1C(CO)OC(OC2C(O)C3N=C(N(C)C)OC3C2CO)C(NC(C)=O)C1O` (some centres undefined), the IC50 (commonly the concentration at which inhibition is half-maximal) turned out to be 7.53 nM. In turn, `CC(=O)NC(/C=N/NC(=O)CCCCCNC(=O)CCCCC1SC[C@H]2NC(=O)N[C@@H]12)C(OC(CO)CO)OC1C(CO)OC(OC2C(O)C3N=C(N(C)C)OC3C2CO)C(NC(C)=O)C1O` (some centres undefined) came in with a 50% inhibitory concentration (IC50) of 41 nM. As for `CC(=O)NC(/C=N/NC(=O)CCCCCNC(=O)CCCCC1SC[C@H]2NC(=O)N[C@@H]12)C(OC(C=O)CO)OC1C(CO)OC(OC2C(O)C3N=C(N(C)C)OC3C2CO)C(NC(C)=O)C1O` (some centres undefined), the IC50 turned out to be 41.1 nM.

`CC(=O)NC(CO)C(OC(CO)CO)OC1C(CO)OC(OC2C(O)C3N=C(N(C)C)OC3C2CO)C(NC(C)=O)C1O` (centres undefined) displayed an IC50 of 80 nM.
